Experimental findings from PubChem BioAssay (NCI) are described below.

Common to all, as to experiment: growth of human tumour cells (NCI), 48 h
The test system of experiment [1] is ACHN renal.
The subject of experiment [2] is DMS 114 small cell lung.
For experiment [3], the system named is HOP-92 NSCLC.
The test system of experiment [4] is KM20L2 colon.
In experiment [5] the test system is NCI-H23 lung.
Experiment [6] has as its system SK-MEL-2 melanoma.
Experiment [7] relates to SNB-75 CNS.
In experiment [8] the test system is UACC-257 melanoma.
In experiment [9] the test system is SNB-78 CNS.
Experiment [10] relates to PC-3 prostate.

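96-well plates; 48 h exposure; 5 concentrations. Endpoints by linear interpolation between flanking doses. Not reached: highest tested concentration assigned. GI50: concentration for 50% inhibition of growth. TGI: concentration producing complete growth inhibition.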

Regarding `Cc1cccc2c1NC(c1c(C)[nH]c3ccccc13)C2` (stereo unspecified), the TGI in experiment [1] was more than 100 µM; in experiment [2] it was more than 100 µM; in experiment [3], 17.2 µM; in experiment [4] it was more than 100 µM; in experiment [5] it was more than 100 µM; in experiment [6] it was more than 100 µM. The TGI in [7] and in [8] was more than 100 µM throughout.

For the molecule `O=C1/C=C(/c2ccc(O)cc2)[C@H](O)Cc2ccc(OC3OC(CO)C(O)C(O)C3O)cc2O1` (stereo partly specified) (tested in a mixture with another compound), the TGI in experiment [1], in experiment [2], in experiment [4], in experiment [5], in experiment [6] and in experiment [9] was more than 100 µM in each case. In experiment [8], this molecule came in with a TGI of more than 100 µM.

`COC(=O)c1ccc2n[se]nc2c1`: the TGI in [1], in experiment [2], in experiment [4], in experiment [5], in experiment [6] and in experiment [7] was more than 100 µM each time. The TGI in experiment [9] and in experiment [8] was more than 100 µM throughout.

`O=C(N/C(=C\c1cc(Cl)ccc1Cl)c1nc2ccccc2[nH]1)c1ccccc1`: the TGI in experiment [1] is more than 100 µM; in [2], more than 100 µM; in [3], 31.5 µM; in [4], more than 100 µM; in experiment [5], 96.9 µM; in experiment [6], more than 100 µM. The molecule also registered a TGI in experiment [9] of more than 100 µM.

As to `COc1cc2c3c(c1OC)C1(C=CC(=O)C=C1)CC3N(C(=O)OC(C)(C)C(Cl)(Cl)Cl)CC2` (stereo unspecified), the TGI was found to be 22 µM in [2]; 29.8 µM in experiment [3]; 25.2 µM in experiment [4]; 32.4 µM in experiment [5]; 25.2 µM in experiment [6]; 34.5 µM in [7]. For the same molecule, the figures for the TGI in experiment [9] and in [8] were 33.8 µM and 26.2 µM, respectively.

Consider `CC(C)(C)NC(=O)C12C3C4C1C1C2C3C41I` (stereo unspecified), for which the TGI in experiment [2], in [3], in experiment [4], in experiment [5], in [6] and in experiment [9] was more than 100 µM each time. Moreover, in [8], the TGI is more than 100 µM.

With `COc1ccc(NC(=O)CC(=O)n2nc(-c3ccccc3)c(N=Nc3ccc(C)cc3)c2-c2ccccc2)cc1`, the TGI was 60.9 µM in [1]; more than 80.1 µM in experiment [2]; 40.6 µM in [3]; more than 100 µM in experiment [4]; 54 µM in experiment [5]; more than 57.9 µM in experiment [10]. Further, the TGI is 65.2 µM in [6], 41.2 µM in experiment [7], 61.2 µM in [9] and more than 95.8 µM in experiment [8].

For the molecule `COC1=C(C(=O)OC(C)(C)C)C23CCCCC2(C(C(=O)OC(C)(C)C)=C(OC)C3C(=O)OC(C)(C)C)C1C(=O)OC(C)(C)C` (stereo unspecified), the TGI was more than 100 µM in [1]; more than 100 µM in [2]; 89.5 µM in experiment [3]; more than 100 µM in [4]; more than 100 µM in experiment [5]; more than 100 µM in experiment [6]. Also, the TGI in experiment [7], in experiment [9] and in experiment [8] was more than 100 µM in each case.

Regarding `Clc1cc(Cl)c2n[se]nc2c1`, the TGI in experiment [1], in experiment [4], in [5], in [6], in [7] and in experiment [9] was more than 100 µM each time. This molecule showed a TGI in [8] of more than 100 µM.

For `COc1cc(C=C2C(=O)OC(C)(C)OC2=O)cc(OC)c1OC`, the TGI in experiment [1], in experiment [2], in experiment [3], in [4], in experiment [5] and in experiment [6] was more than 100 µM each time. In addition, the TGI in [9] and in experiment [8] was more than 100 µM throughout.

Turning to `CC(C)CCC[C@@H](C)C1CCC2[C@@H]3CC=C4C[C@@H](OC(=O)CCC(=O)NCC[N+](C)(C)CCCS(=O)(=O)[O-])CC[C@]4(C)C3CC[C@@]21C` (stereo partly specified), the TGI in experiment [1] was 53.9 µM; in experiment [2], 36.1 µM; in experiment [4], more than 100 µM; in [6], 34.9 µM; in [7] it was 44.9 µM; in experiment [9], 70.1 µM. For the same molecule, the TGI in [8] came to 48.8 µM.

For `CCCCCCCCOCC(O)COC` (stereo unspecified), the TGI in experiment [1], in experiment [2], in experiment [3], in experiment [5] and in [8] was more than 100 µM in each case.

As to `Nc1ccc(Cl)cc1.Nc1ccc(Cl)cc1.Nc1ccc(Cl)cc1.O=C([O-])C(=O)[O-].O=C([O-])C(=O)[O-].[H+].[Ru+5]`, the GI50 in experiment [1] was 0.0696 µM; in [2], 0.23 µM; in experiment [3], more than 100 µM; in experiment [4], more than 100 µM; in experiment [5], more than 19.8 µM; in experiment [6] it was 0.219 µM. Moreover, the results for the GI50 in experiment [7] and in experiment [9] were more than 78.6 µM and more than 81.9 µM, respectively. For the same molecule, the TGI in experiment [1] is more than 25.4 µM; in experiment [3], more than 100 µM; in experiment [4] it was more than 100 µM; in [5] it was more than 100 µM; in experiment [7], more than 100 µM; in [9], more than 100 µM. The molecule also had a TGI in experiment [8] of more than 100 µM.

Take `COc1ccc(/C=N\N2C(=O)Cc3ccccc32)cc1`: the TGI in experiment [1] is more than 100 µM; in [3], 85.5 µM; in experiment [4] it was more than 100 µM; in experiment [5] it was more than 100 µM; in experiment [6], more than 100 µM; in experiment [7], 62 µM. In addition, the TGI in experiment [9] and in experiment [8] was more than 100 µM each time.

In the case of `Cc1cc(C)c(-c2noc(-c3ccc(Cl)cc3)c2C2=NCCN2)c(C)c1`, the TGI in experiment [1] was more than 100 µM; in experiment [4] it was 54 µM; in experiment [5], 36.2 µM; in [6] it was 43.8 µM; in experiment [7] it was 37.3 µM; in experiment [9] it was 58.3 µM. This molecule also gave a TGI in experiment [8] of 34 µM.

With `COC1=C(NC(C)=O)C(=O)c2nc3n(c2C1=O)CCC3`, the TGI in [1] is 40.7 µM; in experiment [2], 25 µM; in experiment [3], 26.2 µM; in [4], more than 100 µM; in experiment [5] it was 39 µM; in experiment [10], more than 100 µM. For the same molecule, the TGI in experiment [6] came out at 32.7 µM; in [7], 41.2 µM; in experiment [9] it was 28.9 µM; in experiment [8] it was 30.4 µM.

Turning to `NC(N)=Nc1nc2cc(N)ccc2o1`, the TGI in experiment [1], in experiment [3], in [4], in experiment [5], in experiment [6] and in [7] was more than 100 µM each time. Also, the TGI in experiment [9] and in experiment [8] was more than 100 µM throughout.

Consider `COc1cc(OC)c(Oc2cccc(OC)c2OC)c(OC)c1`, for which the TGI in experiment [1], in experiment [2], in [3], in experiment [4], in [5] and in experiment [6] was more than 100 µM in each case. In addition, the TGI in experiment [7], in experiment [9] and in experiment [8] was more than 100 µM throughout.

With `Cn1c(=O)c(C2c3ccccc3Oc3c2c(=O)n(C)c2ccccc32)c(O)c2ccccc21` (stereo unspecified), the TGI in experiment [1], in experiment [2], in experiment [3], in experiment [4], in [5] and in experiment [6] was more than 100 µM in each case. The figures for the TGI in experiment [7], in experiment [9] and in [8] were more than 100 µM, more than 100 µM and 73.7 µM, respectively.

With `O=C(Nc1ccc(Cl)cc1Cl)c1c/c(=N\O)c2ccc(O)cc2o1`, the TGI in experiment [1], in experiment [2], in experiment [3], in [4], in experiment [5] and in experiment [7] was more than 100 µM in each case. The TGI in experiment [9] and in experiment [8] was more than 100 µM in each case.

On to `O=C(O)C(=O)/C=C\c1ccc(Cl)cc1`, for which the TGI in experiment [1], in experiment [2], in [3], in [4], in [5] and in experiment [6] was more than 100 µM each time. In addition, the TGI in experiment [7], in [9] and in experiment [8] was more than 100 µM each time.

Turning to `O=c1c2ccccc2oc2nccnc12`, the TGI in [1], in experiment [2], in [4], in experiment [5], in [6] and in [7] was more than 100 µM in each case. The TGI in experiment [9] and in experiment [8] was more than 100 µM in each case.

In the case of `O=C(/C=C(\O)C(=O)O)/C=C(\O)c1ccc(Cl)cc1`, the TGI in experiment [1], in experiment [2], in [3], in [4], in experiment [5] and in experiment [6] was more than 100 µM throughout. Further, the TGI in experiment [7], in [9] and in [8] was more than 100 µM in each case.

With `CCC(C)CNC1=C(NC(C)=O)C(=O)c2ccccc2C1=O` (stereo unspecified), the TGI in experiment [1], in experiment [4], in [5], in [6], in experiment [7] and in [9] was more than 100 µM each time. For the same molecule, the TGI in [8] is more than 100 µM.

For the molecule `CCOC(=O)C(=C=Cc1cccs1)C(=O)c1ccccc1`, the TGI came out at 33.3 µM in experiment [1]; 19.1 µM in experiment [3]; 28.8 µM in experiment [5]; 33.4 µM in experiment [6]; 29.8 µM in [7]; 47.5 µM in [9]. In experiment [8], this molecule gave a TGI of 25.5 µM.

Take `Cc1cc(C)cc(NC(=O)CCC(=O)C2CCC/C2=N\NC(=O)C(=O)NN)c1` (stereo unspecified): the TGI in experiment [1], in experiment [2], in experiment [4], in experiment [5], in [6] and in [7] was more than 100 µM in each case. This molecule also gave a TGI in [8] of more than 100 µM.

For `COc1ccc2c(c1)C(CCN)C(=O)N2` (stereo unspecified), the TGI in [1], in [2], in [3], in experiment [4], in [5] and in [6] was more than 100 µM throughout. In addition, the TGI in experiment [7], in experiment [9] and in experiment [8] was more than 100 µM in each case.

As for `c1cc(C2O[C@H]3CCCN3[C@@H]2c2ccncc2)ccn1` (stereo partly specified), the TGI in experiment [1], in experiment [2], in [4], in experiment [5], in experiment [6] and in experiment [7] was more than 100 µM each time. In addition, the TGI in [9] and in experiment [8] was more than 100 µM in each case.

With `N=C(N)c1ccc(-c2ccc(-c3ccco3)o2)cc1`, the GI50 in experiment [1] is 4.24 µM; in experiment [3], 1.38 µM; in experiment [5], 11 µM; in [10], 4.05 µM; in experiment [6], 2.41 µM; in [7], 10.7 µM. The GI50 in [8] was 1.84 µM. For the same molecule, the TGI in [1] was 15.3 µM; in [3] it was 4.7 µM; in experiment [5], 26.6 µM; in experiment [10] it was 17 µM; in experiment [6], 4.65 µM; in [7] it was 23.2 µM. For the same molecule, the TGI in experiment [8] was 3.73 µM.

As to `COC(=O)c1nc(N)[nH]c(=O)c1-c1ccc(Cl)cc1`, the TGI in [1], in experiment [2], in experiment [3], in experiment [4], in [5] and in [6] was more than 100 µM in each case. Also, the TGI in experiment [7], in experiment [9] and in [8] was more than 100 µM in each case.

Regarding `CC(=O)OC1CC[C@@]2(C)C(CC(OC3OC(CO)C(O)C(O)C3O)[C@]3(C)C2CCC24CC23CC[C@H]4C(C)CC(O)[C@@H](O)C(C)(C)O)C1(C)C` (stereo partly specified), the TGI is more than 50 µM in experiment [1]; 20.6 µM in experiment [2]; 19.5 µM in experiment [3]; more than 50 µM in experiment [4]; more than 50 µM in experiment [5]; 18.8 µM in [6]. In addition, the TGI in [7] is 32 µM; in [9], more than 5 µM; in [8], 24.4 µM.
